This is an account of results in patent publication EP0701561B1, “DESOXYAZAPHOSPHOLIPID DERIVATIVES HAVING INHIBITING ACTIVITY ON PHOSPHOLIPASE A2” (LABORATORIOS MENARINI S.A., priority 1993, dated 1994).

For one test, the system named is carrageenin plantar oedema. Briefly: Antiinflammatory activity, inhibition of the carrageenin plantar oedema in the rat. Type of test: in vivo, male Sprague-Dawley rats. The following applies: intravenously, dose 2.5 mg/Kg, paw volume 3 hours after carrageenin. As to the method:
The antiinflammatory action of the compounds of the present invention is determined by a standard test based on the procedure by Winter C.A. et al. (Proc. Soc. Exp. Biol. Med., 111, 544 (1962)). In this test, male Sprague-Dawley rats of 90-110 g are used, which are randomized in groups of 5 animals. The compound under test is administered intravenously in the tail lateral vein. The compound is suspended in Tween 20 (2-3% final concentration) and physiological serum is added to obtain a solution of the desired concentration of the compound, the administered volume being 2.5 ml/kg. Immediately after the injection of the compound, a subplantar injection of 0.1 ml of 1% carrageenin in physiological serum is performed in the right paw of the rat. In each test, a control group is systematically used, which is administered with the vehicle only. The paw inflammation is evaluated by measuring its volume with a water plethysmograph 1, 3 and 6 hours after inducing the inflammation. The determination of the inhibition percentage of the inflammation is calculated by the following formula: % Inhibition = (1 - A/B) x 100 [formula] wherein A is the average of the swelling volume in the group of treated animals and B is the average of the swelling volume in the control group.
For comparison purposes, the inhibition values of indomethacin and ketoprofen are also included as reference. The inhibition value found for Compound A, a structural analogous of the compounds described in the present patent, is also shown.
In general terms: The carrageenan paw model is a standard test of acute inflammation.
With `CCCCCCCCCCS(=O)(=O)NC(CCCCCC)COP(=O)(O)OCCOCc1ccccc1` (stereo not shown) [Compound 26, 2-Decanesulfonylaminooctanol-1-phospho-2-benzyloxyethanol], the “% Inhibition (3 hours)” value is 26%.

The same test, now with this note: intravenously, dose 5 mg/Kg, paw volume 3 hours after carrageenin.
Regarding `CCCCCCCCCCS(=O)(=O)NC(CCCCCC)COP(=O)(O)OCCOCc1ccccc1` (stereo not shown) [Compound 26, 2-Decanesulfonylaminooctanol-1-phospho-2-benzyloxyethanol], the “% Inhibition (3 hours)” value was 37%.
As for `CCCCCCCCCCS(=O)(=O)N[C@H](CCCCCC)COP(=O)(O)OCCOCc1ccccc1` [Compound 27, (R)-2-Decanesulfonylaminooctanol-1-phospho-2-benzyloxyethanol], the “% Inhibition (3 hours)” value was 36%.
On the same count and under the same terms, then `CCCCCCCCCCS(=O)(=O)N[C@@H](CCCCCC)COP(=O)(O)OCCOCc1ccccc1` [Compound 28, (S)-2-Decanesulfonylaminooctanol-1-phospho-2-benzyloxyethanol], with 19%.
Still for that read-out and setting: next, `CCCCCCC(COP(=O)(O)OCCOCc1ccccc1)NS(=O)(=O)CCCc1ccccc1` (stereo not shown) [Compound 32, 2-(3-Phenylpropanesulfonylamino)octanol-1-phospho-2-benzyloxyethanol]: 35%; `CCCCCCCCCCS(=O)(=O)NC(CCCCCC)COP(=O)(O)CCCCc1ccccc1` (stereo not shown) [Compound 38, 2-Decanesulfonaminooctyl (4-phenylbutyl)phosphonate]: 23%; `CCCCCCCCCCCC(=O)NC(CCCCCC)COP(=O)(O)CCCC` (stereo not shown) [Compound 39, 2-Dodecanoylaminooctyl butylphosphonate]: 17%.
Turning to `COc1ccc2c(c1)c(CC(=O)O)c(C)n2C(=O)c1ccc(Cl)cc1` [Indomethacin, indomethacin, reference compound], the “% Inhibition (3 hours)” value is 37%.
Consider `CC(C(=O)O)c1cccc(C(=O)c2ccccc2)c1` (stereo not shown) [Ketoprofen, ketoprofen, reference compound], for which the “% Inhibition (3 hours)” value is 37%.
“(R)-2-Decanesulfonylaminohexanol-1-phospho-2-benzyloxyethanol [Compound 29]”: the “% Inhibition (3 hours)” value was 27%.
The same measure, in the same setting: then “(S)-2-Decanesulfonylaminohexanol-1-phospho-2-benzyloxyethanol [Compound 30]”, with 12%.

The test is the same for the next values; noted with them: intravenously, dose 10 mg/Kg, paw volume 3 hours after carrageenin.
In the case of `CCCCCCCCCCS(=O)(=O)NC(CCCCCC)COP(=O)(O)OCCOCc1ccccc1` (stereo not shown) [Compound 26, 2-Decanesulfonylaminooctanol-1-phospho-2-benzyloxyethanol], the “% Inhibition (3 hours)” value is given as 41%.
The same measure, in the same setting: then `CCCCCCCCCCCC(=O)NC(CCCCCC)COP(=O)(O)OCCOCc1ccccc1` (stereo not shown) [Compound A, 2-dodecanoylaminooctanol-1-phospho-2-benzyloxyethanol, reference compound], with 14%.
